Laboratory results from patent US12173018B2, “Penicillin-binding protein inhibitors” (priority 2018, dated 2024).
pEC50: −log10 of the molar value. Converted amounts (≈) assume the structure as drawn. Structures can show the parent of a compound that is named as a salt. Where two headings read alike, the source gives them in different places.

Columns and labels:
E. coli PBP3 = E. coli PBP3 (Escherichia coli (strain K12), UniProt P0AD68); test: E. coli PBP3 Bocillin-FL fluorescence polarization competition binding assay
Chain of E. coli PBP3 (P0AD68 whole entry): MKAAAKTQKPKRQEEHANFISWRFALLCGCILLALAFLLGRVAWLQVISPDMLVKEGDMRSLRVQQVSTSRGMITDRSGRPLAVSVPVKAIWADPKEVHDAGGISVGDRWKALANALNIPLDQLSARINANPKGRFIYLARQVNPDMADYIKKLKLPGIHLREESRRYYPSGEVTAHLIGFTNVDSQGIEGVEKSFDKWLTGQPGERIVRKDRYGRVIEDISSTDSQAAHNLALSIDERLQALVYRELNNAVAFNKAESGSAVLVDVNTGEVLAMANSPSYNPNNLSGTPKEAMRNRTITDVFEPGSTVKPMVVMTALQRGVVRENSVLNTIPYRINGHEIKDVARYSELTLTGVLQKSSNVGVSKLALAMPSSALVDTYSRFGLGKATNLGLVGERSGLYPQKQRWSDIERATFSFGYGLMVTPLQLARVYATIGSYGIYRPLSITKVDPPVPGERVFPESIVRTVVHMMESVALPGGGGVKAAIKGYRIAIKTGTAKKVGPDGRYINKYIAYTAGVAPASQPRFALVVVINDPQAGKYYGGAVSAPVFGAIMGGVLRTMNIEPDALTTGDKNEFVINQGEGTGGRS
Procedure, shortened: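 Purified E. coli PBP (1.5 μM final) competed with inhibitor (0-1000 μM) for Bocillin-FL (0.1 μM final) in 50 mM Hepes pH 8.0, 300 mM NaCl, 5% glycerol. Fluorescence polarization (ex 490/em 520 nm) was read continuously for 60 min after Bocillin-FL addition. EC50 was the concentration that reduced Bocillin-FL binding by 50%.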

[1] = test system: E. coli DH5α empty pLBII vector control strain; test: microbe, parasite or virus in culture; type: cell-based, Escherichia coli; conditions: Escherichia coli, read-out: Microbiological Activity (MIC in mg/L), E. coli DH5α/pLBII
Procedure, shortened: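 Broth microdilution in cation-supplemented Mueller-Hinton broth used a starting inoculum of 5×10^5 CFU/mL of E. coli DH5α carrying empty pLBII vector. Plates were incubated 16–20 h at 37 °C. MIC was read visually as the lowest concentration showing no growth.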

E. coli PBP1a = E. coli PBP1a (Escherichia coli (strain K12), UniProt P02918); test: Radioligand competition binding assay with 14C-labeled boronic acid probe, PBP1a
Chain of E. coli PBP1a (P02918 whole entry): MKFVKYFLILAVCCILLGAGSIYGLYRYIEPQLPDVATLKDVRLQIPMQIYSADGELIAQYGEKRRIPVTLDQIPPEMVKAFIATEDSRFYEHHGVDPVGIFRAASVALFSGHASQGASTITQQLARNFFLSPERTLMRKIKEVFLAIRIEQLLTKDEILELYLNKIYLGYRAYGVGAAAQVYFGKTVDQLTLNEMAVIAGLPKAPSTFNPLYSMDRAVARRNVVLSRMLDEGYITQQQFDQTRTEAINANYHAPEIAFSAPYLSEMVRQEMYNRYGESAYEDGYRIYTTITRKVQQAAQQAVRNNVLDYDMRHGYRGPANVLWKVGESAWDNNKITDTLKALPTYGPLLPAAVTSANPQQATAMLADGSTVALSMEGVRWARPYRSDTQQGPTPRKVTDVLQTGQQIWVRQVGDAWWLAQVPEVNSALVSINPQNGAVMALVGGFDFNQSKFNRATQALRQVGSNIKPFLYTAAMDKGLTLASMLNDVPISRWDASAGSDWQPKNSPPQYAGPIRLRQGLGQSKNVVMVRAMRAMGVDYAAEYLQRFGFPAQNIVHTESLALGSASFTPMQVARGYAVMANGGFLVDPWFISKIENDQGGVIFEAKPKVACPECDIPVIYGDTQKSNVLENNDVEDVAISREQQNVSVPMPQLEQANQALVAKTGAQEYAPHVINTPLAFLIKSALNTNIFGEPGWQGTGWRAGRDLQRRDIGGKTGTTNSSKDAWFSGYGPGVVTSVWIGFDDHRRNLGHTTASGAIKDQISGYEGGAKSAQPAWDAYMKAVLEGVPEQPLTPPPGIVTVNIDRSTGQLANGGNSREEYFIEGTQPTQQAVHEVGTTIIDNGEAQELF
Description: To determine the ability of boronic acid-based test PBP inhibitors to bind Penicillin Binding Proteins (PBPs), a radio-labelled boronic acid PBP inhibitor
[drawing 751] was used in competition binding assays to determine boronic acid PBP inhibitor binding to PBP1a or PBP1b from Escherichia coli. PBP1a and PBP1b were purified as described previously (Bertsche, U.; et al., J. Biol. Chem. 2005, 280 (45), 38096-38101; Born, P.; et al., J. Biol. Chem. 2006. 281 (37), 26985-26993). To establish assay conditions for competition binding, an enzyme titration/saturation binding experiment was performed. Saturation binding was performed in a buffer comprised of 20 mM Tris (pH 7.5), 500 mM NaCl and 0.1% (v/v) TritonX-100, with PBP1a/PBP1b at a final concentration of 0.1 μM and Compound A at final concentrations ranging from 0-100 μM. Mixtures were incubated for 60 minutes, then applied to Zeba Spin Desalting columns or plates (ThermoFisher Scientific) and centrifuged at 1000-1500×g for 2 minutes. The flow through, containing PBP bound with Compound A, was recovered and 100 μL mixed with 5 mL of UltimaGold liquid scintillation cocktail (Perkin Elmer), and the radioactivity counted using a Beckman Coulter LS 6500 Multipurpose scintillation counter. PBP binding of Compound A approached saturation at 20 μM of ^14C-labeled probe. The competition binding assay was validated using the beta-lactam ampicillin, with Compound A at a final concentration of 20 μM, PBP1a/PBP1b at a final concentration of 0.1 μM. PBP1a/PBP1b was incubated with ampicillin in a 96-well microplate for 60 minutes, then Compound A was added and the mixtures incubated for an additional 60 minutes. The mixtures were then applied to Zeba Spin desalting plates and centrifuged at 1000×g for 2 minutes. The flow through was recovered and 100 μl mixed with 5 ml of UltimaGold liquid scintillation cocktail and the radioactivity counted. […] Binding assays with boronic acid PBP inhibitors were performed in an identical fashion. The potency of boronic acid PBP inhibitors was reported as the EC50 value.

[2] = test system: engineered strain of Escherichia coli harboring CTX-M15; test: microbe, parasite or virus in culture; type: cell-based; conditions: Escherichia coli, read-out: Microbiological Activity (MIC in mg/L), E. coli DH5α/pLBII-CTX-M15, engineered strain producing CTX-M15
K. pneumoniae UMM = test: microbe, parasite or virus in culture; type: cell-based; conditions: Klebsiella pneumoniae; K. pneumoniae UMM producing SHV-5 and KPC-2; read-out: MIC K. pneumoniae UMM
Procedure, shortened: (§1)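 Broth microdilution MICs followed CLSI methods in cation-supplemented Mueller-Hinton broth, with 2-fold serial compound dilutions. Log-phase cultures grown 3–5 h were added to a starting inoculum of 5×10^5 CFU/mL and incubated 16–20 h at 37 °C. The MIC was read visually as the lowest concentration with no growth.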

E. coli 901C = test: microbe, parasite or virus in culture; type: cell-based; conditions: Escherichia coli; hyper-permeable E. coli 901C, broth microdilution; read-out: MIC E. coli 901C
Procedure, shortened: as §1

E. coli AG100A = test: microbe, parasite or virus in culture; type: cell-based; conditions: Escherichia coli, read-out: MIC E. coli AG100A
Procedure, shortened: as §1

E. coli PBP1b = E. coli PBP1b (Escherichia coli (strain K12), UniProt P02919); test: Radioligand competition binding assay with 14C-labeled boronic acid probe, PBP1b
Chain of E. coli PBP1b (P02919 whole entry): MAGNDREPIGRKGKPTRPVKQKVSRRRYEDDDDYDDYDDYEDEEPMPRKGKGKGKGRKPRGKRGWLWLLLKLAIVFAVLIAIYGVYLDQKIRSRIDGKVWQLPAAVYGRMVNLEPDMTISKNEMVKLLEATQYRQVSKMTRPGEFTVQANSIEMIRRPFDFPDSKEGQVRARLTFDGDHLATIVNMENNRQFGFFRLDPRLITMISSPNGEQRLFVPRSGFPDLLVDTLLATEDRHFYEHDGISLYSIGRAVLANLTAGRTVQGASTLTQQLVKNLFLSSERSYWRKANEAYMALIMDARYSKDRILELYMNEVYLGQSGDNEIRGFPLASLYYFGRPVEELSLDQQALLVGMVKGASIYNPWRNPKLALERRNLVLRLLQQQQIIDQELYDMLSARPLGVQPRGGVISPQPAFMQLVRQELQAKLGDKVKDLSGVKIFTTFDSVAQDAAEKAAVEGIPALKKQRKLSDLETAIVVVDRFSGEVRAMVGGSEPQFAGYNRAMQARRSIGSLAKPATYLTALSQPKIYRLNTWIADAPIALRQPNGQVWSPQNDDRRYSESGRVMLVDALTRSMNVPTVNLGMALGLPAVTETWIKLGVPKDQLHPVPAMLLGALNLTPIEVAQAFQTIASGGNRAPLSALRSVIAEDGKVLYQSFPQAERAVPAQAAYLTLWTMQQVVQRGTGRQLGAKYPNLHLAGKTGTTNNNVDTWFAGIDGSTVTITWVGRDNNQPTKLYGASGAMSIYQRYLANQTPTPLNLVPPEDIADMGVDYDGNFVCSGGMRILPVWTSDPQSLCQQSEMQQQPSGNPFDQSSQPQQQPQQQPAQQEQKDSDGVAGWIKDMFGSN

E. coli AG100 = test: Broth microdilution MIC, E. coli AG100 (wild-type parent); type: cell-based; conditions: Escherichia coli; wild-type parent E. coli AG100, broth microdilution; read-out: MIC E. coli AG100
Procedure, shortened: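 Broth microdilution in cation-supplemented Mueller-Hinton broth, 2-fold serial compound dilutions, inoculum 5×10^5 CFU/mL from 3-5 h log culture.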

E. coli ATCC 25922 = test: Broth microdilution MIC, E. coli ATCC 25922; type: cell-based; conditions: Escherichia coli, ATCC25922; E. coli ATCC 25922, broth microdilution; read-out: MIC E. coli 25922
Procedure, shortened: as §1

K. pneumoniae SI-117 = test: microbe, parasite or virus in culture; type: cell-based; conditions: Klebsiella pneumoniae, SI117, read-out: MIC K. pneumoniae SI-117
Procedure, shortened: as §1

E. coli D22 = test: microbe, parasite or virus in culture; type: cell-based; conditions: Escherichia coli; hyper-permeable E. coli D22, broth microdilution; read-out: MIC E. coli D22
Procedure, shortened: as §1

K. pneumoniae 848844 = test: microbe, parasite or virus in culture; type: cell-based, Klebsiella pneumoniae; conditions: Klebsiella pneumoniae; K. pneumoniae 848844 producing SHV-11 and KPC-2; read-out: MIC K. pneumoniae 848844
Procedure, shortened: as §1

[3] = fluorescence polarization competition binding with Bocillin-FL, read-out: E. coli K12 PBP3 Potency

| SMILES | pEC50 (E. coli PBP3; [3]) | MIC [1] [mg/L] | pEC50 (E. coli PBP1a) | MIC [2] [mg/L] | MIC (K. pneumoniae UMM) [µg/mL] | MIC (E. coli 901C) [µg/mL] | MIC (E. coli AG100A) [µg/mL] | pEC50 (E. coli PBP1b) | MIC (E. coli AG100) [µg/mL] | MIC (E. coli ATCC 25922) [µg/mL] | pEC50 (E. coli PBP3) | MIC (K. pneumoniae SI-117) [µg/mL] | MIC (E. coli D22) [µg/mL] | MIC (K. pneumoniae 848844) [µg/mL] | pEC50 (E. coli PBP1b; assay validation, Compound A 20 μM, PBP1a/PBP1b 0.1 μM, read-out: EC50 (inhibition of binding of Compound A) PBP1b) | pEC50 (E. coli PBP3; assay validation with beta-lactams, PBP 1.5 μM, Bocillin-FL 0.1 μM, read-out: EC50 for PBP3 (reduction of Bocillin-FL binding)) | pEC50 (E. coli PBP1a; assay validation, Compound A 20 μM, PBP1a/PBP1b 0.1 μM, read-out: EC50 (inhibition of binding of Compound A) PBP1a) |
| --- | --- | --- | --- | --- | --- | --- | --- | --- | --- | --- | --- | --- | --- | --- | --- | --- | --- |
| CCN1CCN(C(=O)N[C@H](CCN)C(=O)N[C@H]2Cc3cccc(C(=O)O)c3OB2O)C(=O)C1=O [Example 17, (R)-3-((R)-4-amino-2-(4-ethyl-2,3-dioxopiperazine-1-carboxamido)butanamido)-2-hydroxy-3,4-dihydro-2H-benzo[e][1,2]oxaborinine-8-carboxylic acid, trifluoroacetic acid salt] | < 3.30 | > 512 | > 5.00 | 128 to 256 |  |  |  |  |  |  |  |  |  |  |  |  |  |
| CCN1CCN(C(=O)NC(C(=O)N[C@H]2Cc3cccc(C(=O)O)c3OB2O)c2ccc(O)c(O)c2)C(=O)C1=O (stereo partly drawn) [Example 22, (3R)-3-(2-(3,4-dihydroxyphenyl)-2-(4-ethyl-2,3-dioxopiperazine-1-carboxamido)acetamido)-2-hydroxy-3,4-dihydro-2H-benzo[e][1,2]oxaborinine-8-carboxylic acid] | > 4.52 | 8 to 16 (≈ 14.8 to 29.6 µM) | > 5.00 | 8 to 16 (≈ 14.8 to 29.6 µM) | 8 to 16 | 0.5 to 1 | 2 to 4 | > 5.00 | 8 to 16 | 8 to 16 |  |  |  |  |  |  |  |
| CCN1CCN(C(=O)NC(C(=O)N[C@H]2Cc3cccc(C(=O)O)c3OB2O)c2ccc(OC)cc2)C(=O)C1=O (stereo partly drawn) [Example 26, (3R)-3-(2-(4-ethyl-2,3-dioxopiperazine-1-carboxamido)-2-(4-methoxyphenyl)acetamido)-2-hydroxy-3,4-dihydro-2H-benzo[e][1,2]oxaborinine-8-carboxylic acid] |  | 128 to 256 (≈ 238 to 476 µM) | > 5.00 | 128 to 256 (≈ 238 to 476 µM) |  |  |  |  |  |  | 3.30 to 4.52 |  |  |  |  |  |  |
| CCN1CCN(C(=O)NC(C(=O)N[C@H]2Cc3cccc(C(=O)O)c3OB2O)c2cc(O)c(O)c(Cl)c2)C(=O)C1=O (stereo partly drawn) [Example 45, (3R)-3-(2-(3-chloro-4,5-dihydroxyphenyl)-2-(4-ethyl-2,3-dioxopiperazine-1-carboxamido)acetamido)-2-hydroxy-3,4-dihydro-2H-benzo[e][1,2]oxaborinine-8-carboxylic acid] | > 4.52 | 8 to 16 (≈ 13.9 to 27.8 µM) | > 5.00 | 8 to 16 (≈ 13.9 to 27.8 µM) | 8 to 16 | 0.5 to 1 | 8 to 16 | > 5.00 | 8 to 16 | 8 to 16 |  |  |  |  |  |  |  |
| CCN1CCN(C(=O)NC(C(=O)N[C@H]2Cc3cccc(C(=O)O)c3OB2O)c2ccc(O)c(OCCN)c2)C(=O)C1=O (stereo partly drawn) [Example 49, (3R)-3-(2-(3-(2-aminoethoxy)-4-hydroxyphenyl)-2-(4-ethyl-2,3-dioxopiperazine-1-carboxamido)acetamido)-2-hydroxy-3,4-dihydro-2H-benzo[e][1,2]oxaborinine-8-carboxylic acid] |  | 32 to 64 (≈ 54.9 to 110 µM) | > 5.00 |  |  |  |  |  |  |  | 3.30 to 4.52 |  |  |  |  |  |  |
| CCN1CCN(C(=O)NC(C(=O)N[C@H]2Cc3cccc(C(=O)O)c3OB2O)c2cc(O)c(O)cc2Cl)C(=O)C1=O (stereo partly drawn) [Example 85, (3R)-3-(2-(2-chloro-4,5-dihydroxyphenyl)-2-(4-ethyl-2,3-dioxopiperazine-1-carboxamido)acetamido)-2-hydroxy-3,4-dihydro-2H-benzo[e][1,2]oxaborinine-8-carboxylic acid] |  |  | > 5.00 | 32 to 64 (≈ 55.7 to 111 µM) | 32 to 64 | 0.5 to 1 | 8 to 16 | > 5.00 | 8 to 16 | 8 to 16 |  |  |  |  |  |  |  |
| CCN1CCN(C(=O)NC(C(=O)N[C@H]2Cc3cccc(C(=O)O)c3OB2O)c2ccc(O)nc2F)C(=O)C1=O (stereo partly drawn) [Example 86, (3R)-3-(2-(4-ethyl-2,3-dioxopiperazine-1-carboxamido)-2-(2-fluoro-6-hydroxypyridin-3-yl)acetamido)-2-hydroxy-3,4-dihydro-2H-benzo[e][1,2]oxaborinine-8-carboxylic acid] |  |  | > 5.00 | 128 to 256 (≈ 236 to 471 µM) |  |  |  |  |  |  | 3.30 to 4.52 |  |  |  |  |  |  |
| O=C(O)c1cccc2c1OB(O)[C@@H](NC(=O)C(NC(=O)N1CCN(CCF)C(=O)C1=O)c1ccc(O)cn1)C2 (stereo partly drawn) [Example 99, (3R)-3-(2-(4-(2-fluoroethyl)-2,3-dioxopiperazine-1-carboxamido)-2-(5-hydroxypyridin-2-yl)acetamido)-2-hydroxy-3,4-dihydro-2H-benzo[e][1,2]oxaborinine-8-carboxylic acid] | > 4.52 |  | 4.00 to 5.00 | 32 to 64 (≈ 58.9 to 118 µM) | 8 to 16 | < 0.25 | 2 to 4 |  | 32 to 64 | 32 to 64 |  |  |  |  |  |  |  |
| Nc1ncc(C(NC(=O)N2CCN(CCF)C(=O)C2=O)C(=O)N[C@H]2Cc3cccc(C(=O)O)c3OB2O)s1 (stereo partly drawn) [Example 100, (3R)-3-(2-(2-aminothiazol-5-yl)-2-(4-(2-fluoroethyl)-2,3-dioxopiperazine-1-carboxamido)acetamido)-2-hydroxy-3,4-dihydro-2H-benzo[e][1,2]oxaborinine-8-carboxylic acid] |  |  | 4.00 to 5.00 | 8 to 16 (≈ 14.6 to 29.2 µM) | 8 to 16 | 0.5 to 1 | 2 to 4 |  | 32 to 64 | 32 to 64 | 3.30 to 4.52 | 8 to 16 | 8 to 16 | 32 to 64 |  |  |  |
| CC1(C)S[C@@H]2[C@H](NC(=O)[C@H](N)c3ccccc3)C(=O)N2[C@H]1C(=O)O [ampicillin, reference compound] |  |  |  |  |  |  |  |  |  |  |  |  |  |  | > 6.30 | 5.85 | > 6.30 |
